Structures can show the parent of a compound that is named as a salt. Where two headings read alike, the source gives them in different places.
Biological target: AaDOP2 (Aedes aegypti, UniProt H6D5H2)
Test: AaDOP2 antagonist screen of the LOPAC1280 library (HEK-CRELuc-Aadop2 cells, luminescence)
Type: cell-based
[1] = 10 µM compound, 300 nM dopamine, 2 hr, hit = compound effect <20

AaDOP2, sequence (H6D5H2 1-476): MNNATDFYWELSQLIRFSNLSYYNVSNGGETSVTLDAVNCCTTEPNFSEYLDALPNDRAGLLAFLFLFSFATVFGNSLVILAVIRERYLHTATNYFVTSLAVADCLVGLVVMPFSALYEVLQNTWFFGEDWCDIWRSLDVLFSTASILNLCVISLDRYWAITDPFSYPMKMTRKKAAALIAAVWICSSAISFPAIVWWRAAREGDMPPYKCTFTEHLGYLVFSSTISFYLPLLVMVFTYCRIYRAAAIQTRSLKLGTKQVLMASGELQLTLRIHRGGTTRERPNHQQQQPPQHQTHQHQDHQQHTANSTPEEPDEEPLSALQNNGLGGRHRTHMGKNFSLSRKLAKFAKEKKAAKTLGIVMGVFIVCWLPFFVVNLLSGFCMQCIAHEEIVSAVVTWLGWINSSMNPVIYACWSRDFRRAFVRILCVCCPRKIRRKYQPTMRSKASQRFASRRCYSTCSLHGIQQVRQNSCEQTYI

Compound	Compound effect (percent receptor signaling in presence of test compound, relative lux units relative to the SCH23390 control)	other results
NCC(O)c1ccc(O)cc1 (racemic) [Compound 894, (±)-Octopamine hydrochloride, reference compound]	104	
CN1CCN(C2Cc3ccccc3Sc3ccc(Cl)cc32)CC1.O=C(O)/C=C\C(=O)O (racemic) [Compound 913, (±)-Octoclothepin maleate]	3	% of the SCH23390 effect (percent inhibition of receptor response relative to the SCH23390 control): 97%
CC(C)NCC(O)COc1cccc2ccccc12.Cl (racemic) [Compound 922, (±)-Propranolol hydrochloride]	102	
CCCCCCCCCCCCCCCC(=O)OC(CC(=O)O)C[N+](C)(C)C.[Cl-] (racemic) [Compound 943, Palmitoyl-DL-Carnitine chloride]	59	
CCCCCCCCCC(=O)NC(CN1CCOCC1)[C@H](O)c1ccccc1.Cl (mixture of isomers) [Compound 968, (±)-threo-1-Phenyl-2-decanoylamino-3-morpholino-1-propanol hydrochloride]		Compound effect (percent receptor signaling in presence of test compound, relative lux units relative to the SCH23390 control) [1]: 85%
O=C(O)[C@H]1CCCN[C@H]1C(=O)O (racemic) [Compound 985, (±)-cis-Piperidine-2,3-dicarboxylic acid]	108	
CCCN(CCc1ccccc1)C1CCc2c(O)cccc2C1.Cl (racemic) [Compound 1005, (±)-PPHT hydrochloride]		Compound effect (percent receptor signaling in presence of test compound, relative lux units relative to the SCH23390 control) [1]: 73%
CCN1CCC[C@H]1CNC(=O)c1c(O)c(Cl)cc(Cl)c1OC.O=C(O)C(O)C(O)C(=O)O (racemic) [Compound 1069, S(+)-Raclopride L-tartrate]		Compound effect (percent receptor signaling in presence of test compound, relative lux units relative to the SCH23390 control) [1]: 76%
CC(C)NCC(O)c1ccc(NS(C)(=O)=O)cc1.Cl (racemic) [Compound 1074, (±)-Sotalol hydrochloride]		Compound effect (percent receptor signaling in presence of test compound, relative lux units relative to the SCH23390 control) [1]: 125%
CNCC(O)c1ccc(O)cc1 (racemic) [Compound 1077, (±)-Synephrine]	88	
CCCCCCCCCCCCCCCCCC(=O)OC(CC(=O)O)C[N+](C)(C)C.[Cl-] (racemic) [Compound 1088, DL-Stearoylcarnitine chloride]	101	
CCN1CCCC1CNC(=O)c1cc(S(N)(=O)=O)ccc1OC (racemic) [Compound 1113, (±)-Sulpiride]		Compound effect (percent receptor signaling in presence of test compound, relative lux units relative to the SCH23390 control) [1]: 114%
Br.Oc1cc2c(c(Cl)c1O)CCNCC2c1ccccc1 (racemic) [Compound 1133, (±)-6-Chloro-PB hydrobromide]		Compound effect (percent receptor signaling in presence of test compound, relative lux units relative to the SCH23390 control) [1]: 99%
Br.C=CCN1CCc2cc(O)c(O)cc2C(c2ccccc2)C1 (racemic) [Compound 1139, (±)-SKF 38393, N-allyl-, hydrobromide]	70	
O=C1c2c(O)cc(O)cc2O[C@H](c2ccc(O)c(O)c2)[C@H]1O (racemic) [Compound 1176, (±)-Taxifolin]	102	
O=C(O)CCCCC1CCSS1 (racemic) [Compound 1185, (±)-alpha-Lipoic Acid]	111	
O=C(O)CNC(=O)C(CS)Cc1ccccc1 (racemic) [Compound 1186, DL-Thiorphan]	107	
O=C1CCC(N2C(=O)c3ccccc3C2=O)C(=O)N1 (racemic) [Compound 1227, (±)-Thalidomide]		Compound effect (percent receptor signaling in presence of test compound, relative lux units relative to the SCH23390 control) [1]: 107%
COc1ccc(CCN(C)CCCC(C#N)(c2ccc(OC)c(OC)c2)C(C)C)cc1OC.Cl (racemic) [Compound 1252, (±)-Verapamil hydrochloride]	117	
C=CC(N)CCC(=O)O (racemic) [Compound 1256, (±)-gamma-Vinyl GABA]		Compound effect (percent receptor signaling in presence of test compound, relative lux units relative to the SCH23390 control) [1]: 108%
Cl.OC1CCCCC1N1CCC(c2ccccc2)CC1 (racemic) [Compound 1259, (±)-Vesamicol hydrochloride]	97	
O=C(O)[C@H]1C[C@H](C(=O)O)N1 (relative stereo) [Compound 146, trans-Azetidine-2,4-dicarboxylic acid]	110	
C[C@]12CC[C@H](O)CC1=CC[C@@H]1[C@@H]2CC[C@]2(C)C(=O)CC[C@@H]12 (relative stereo) [Compound 381, trans-Dehydroandrosterone]	114	
CC[C@@H]1Cc2cc(O)ccc2C2=C1c1ccc(O)cc1C[C@H]2CC (relative stereo) [Compound 423, (R,R)-cis-Diethyl tetrahydro-2,8-chrysenediol]		Compound effect (percent receptor signaling in presence of test compound, relative lux units relative to the SCH23390 control) [1]: 40%

Compound	Compound effect (percent receptor signaling in presence of test compound, relative lux units relative to the SCH23390 control)	other results
C=CCN1CCC2(C)c3cc(O)ccc3CC1C2C.Cl (single isomer, unassigned; (+)) [Compound 123, (+)-N-Allylnormetazocine hydrochloride]	90	
CC1OCC(C[N+](C)(C)C)O1.[I-] (single isomer, unassigned; (+)) [Compound 325, (+)-cis-Dioxolane iodide]	96	
CC1C2Cc3ccc(O)cc3C1(C)CCN2CC1CC1 (single isomer, unassigned; (+)) [Compound 341, (+)-Cyclazocine]	86	
COc1ccc2c(c1OC)C(=O)OC2C1c2cc3c(cc2CCN1C)OCO3 (single isomer, unassigned; (+)) [Compound 605, (+)-Hydrastine]	122	
CC(N)C(O)c1ccc(O)c(O)c1 (single isomer, unassigned; (-)) [Compound 388, (-)-alpha-Methylnorepinephrine]	88	
COc1ccc2c3c1OC1C(=O)CC[C@@]4(O)[C@@H](C2)N(CC2CC2)CC[C@]314.Cl (single isomer, unassigned; (-)) [Compound 836, (-)-3-Methoxynaltrexone hydrochloride]	75	
Nc1ncnc2c1nc(Sc1ccc(Cl)cc1)n2C1OC2COP(=O)(O)O[C@H]2C1O (stereo in doubt) [Compound 251, 8-(4-Chlorophenylthio)-cAMP sodium]		Compound effect (percent receptor signaling in presence of test compound, relative lux units relative to the SCH23390 control) [1]: 97%
NC(=S)c1ccc[n+]([C@@H]2OC(COP(=O)([O-])OP(=O)(O)OC[C@H]3O[C@@H](n4cnc5c(N)ncnc54)[C@H](OP(=O)(O)O)[C@@H]3O)C(O)C2O)c1 (stereo in doubt) [Compound 1183, Thio-NADP sodium]		Compound effect (percent receptor signaling in presence of test compound, relative lux units relative to the SCH23390 control) [1]: 84%
O=C(O)c1ccccc1Nc1ccccc1 [Compound 2, N-Phenylanthranilic acid]	100	
Brc1ccc([C@H]2CN3CCSC3=N2)cc1.O=C(O)C(=O)O [Compound 3, S(-)-p-Bromotetramisole oxalate]		Compound effect (percent receptor signaling in presence of test compound, relative lux units relative to the SCH23390 control) [1]: 106%
Cl.NCCCCC(=O)O [Compound 4, 5-Aminovaleric acid hydrochloride]	115	
O=C(O)CCCCCCCC(=O)O [Compound 6, Azelaic acid]	107	
NCCc1c[nH]c2ccccc12 [Compound 7, Tryptamine hydrochloride]	121	
O=C(O)c1cc2cc(F)ccc2[nH]1 [Compound 8, 5-Fluoroindole-2-carboxylic acid]	92	
COc1ccc2[nH]c3c(c2c1)CCNC3 [Compound 9, 6-Methoxy-1,2,3,4-tetrahydro-9H-pyrido[3,4b] indole]	116	
Nc1nc(SCc2ccc([N+](=O)[O-])cc2)c2ncn([C@@H]3O[C@H](CO)[C@@H](O)[C@H]3O)c2n1 [Compound 10, S-(4-Nitrobenzyl)-6-thioguanosine]	105	
CCN(CC)CCCCCCCCOC(=O)c1cc(OC)c(OC)c(OC)c1.Cl [Compound 11, TMB-8 hydrochloride]		Compound effect (percent receptor signaling in presence of test compound, relative lux units relative to the SCH23390 control) [1]: 98%
Nc1ccncc1 [Compound 12, 4-Aminopyridine]	110	
CN1[C@@H]2CC[C@H]1C[C@@H](OC(=O)C(CO)c1ccccc1)C2 (stereo partly drawn) [Compound 13, Atropine sulfate]	78	
C[N+]1(C)[C@@H]2CC[C@H]1C[C@@H](OC(=O)C(CO)c1ccccc1)C2 (stereo partly drawn) [Compound 14, Atropine methyl nitrate]	112	
NC(N)=NCCCCN=C(N)N [Compound 15, Arcaine sulfate]	122	
Cl.NC1(C(=O)O)CC1 [Compound 16, 1-Aminocyclopropanecarboxylic acid hydrochloride]	104	
CC(N)=O [Compound 17, Acetamide]		Compound effect (percent receptor signaling in presence of test compound, relative lux units relative to the SCH23390 control) [1]: 108%

Reference: paper PMC3265452 (PLoS Neglected Tropical Diseases, 2012)
